# Assay results as given in US5475018A, “1,5-diphenyl pyrazole compounds for treatment of inflammation” (G. D. Searle & Co., priority 1993, dated 1995).
# Experiments:
# [1] = Rat Carrageenan-induced Analgesia Test; format: in vivo, Male Sprague-Dawley rats; settings: oral, inhibition of hyperalgesic foot withdrawal, 3 h after carrageenan
# Procedure: (§1) The carrageenan foot edema test was performed with materials, reagents and procedures essentially as described by Winter et al (Proc. Soc. Exp. Biol. Med., 111, 544 (1962)). Male Sprague-Dawley rats were selected in each group so that the average body weight was as close as possible. Rats were fasted with free access to water for over sixteen hours prior to the test. The rats were dosed orally (1 mL) with compounds suspended in vehicle containing 0.5% methylcellulose and 0.025% surfactant, or with vehicle alone. One hour later a subplantar injection of 0.1 mL of 1% solution of carrageenan/sterile 0.9% saline was administered and the volume of the injected foot was measured with a displacement plethysmometer connected to a pressure transducer with a digital indicator. Three hours after the injection of the carrageenan, the volume of the foot was again measured. The average foot swelling in a group of drug-treated animals was compared with that of a group of placebo-treated animals and the percentage inhibition of edema was determined (Otterness and Bliven, Laboratory Models for Testing NSAIDs, in Non-steroidal Anti-Inflammatory Drugs, (J. Lombardino, ed. 1985)).
# The analgesia test using rat carrageenan was performed with materials, reagents and procedures essentially as described by Hargreaves et al (Pain, 32, 77 (1988)). […] The time until the rat withdraws its foot was then measured. […]
# [2] = Rat Carrageenan Foot Pad Edema Test; format: in vivo, Male Sprague-Dawley rats; settings: oral, dosed 1 h before carrageenan, foot volume 3 h after carrageenan, vs placebo
# Procedure: as §1
structure (smiles),measurement,setting,value
"CS(=O)(=O)c1ccc(-n2nc(C(F)(F)F)cc2-c2ccc(F)cc2)cc1 [Example 1, 5-(4-Fluorophenyl)-1-[4-(methylsulfonyl)phenyl]-3-(trifluoromethyl)pyrazole]",ANALGESIA % Inhibition @ 20 mg/kg body weight,[1],37%
same,RAT PAW EDEMA % Inhibition @ 10 mg/kg body weight,[2],38%
